Article PMC3586205 (European journal of pharmacology, 2012)
Where two headings read alike, the source gives them in different places.

Assays:
[1] = test system: tail flick latency in mice; settings: cited from earlier work; for %MPE, maximum possible antinociceptive effect in tail flick (maximum effect): 10 mg/kg i.v.; for %MPE tail flick ED50 (95% confidence limits): i.v., ref Wiley et al. (2011)
[2] = test system: ring immobility in mice; settings: cited from earlier work
[3] = test system: food intake in mice; assay: Feeding behavior: 1-h food intake after 24-h food deprivation; format: in vivo; settings: for decrease in feeding compared to vehicle: 60 min pre-session, significant; for effect on food intake: doses up to 30 mg/kg i.p.; for dose that significantly decreased feeding: i.p.
[4] = test system: cannabinoid agonist-like effects in mice; settings: cited from earlier work; for % of maximal cannabinoid agonist-like activity in each of the four tests: ref Wiley et al. (2012); for profile in test battery: ref Wiley et al. (2011)
[5] = test system: spontaneous activity in mice; settings: cited from earlier work; for SA, % inhibition of activity of vehicle control group (maximum effect): 10 mg/kg i.v., stim=stimulation; for SA ED50 (95% confidence limits): i.v., ref Wiley et al. (2011)
[6] = target: human cannabinoid CB1 receptor (Homo sapiens, UniProt P21554); settings: read-out: CB1 Ki (± SEM), displacement of [3H]CP55,940, cited from earlier work
Sequence of human cannabinoid CB1 receptor (P21554 whole entry): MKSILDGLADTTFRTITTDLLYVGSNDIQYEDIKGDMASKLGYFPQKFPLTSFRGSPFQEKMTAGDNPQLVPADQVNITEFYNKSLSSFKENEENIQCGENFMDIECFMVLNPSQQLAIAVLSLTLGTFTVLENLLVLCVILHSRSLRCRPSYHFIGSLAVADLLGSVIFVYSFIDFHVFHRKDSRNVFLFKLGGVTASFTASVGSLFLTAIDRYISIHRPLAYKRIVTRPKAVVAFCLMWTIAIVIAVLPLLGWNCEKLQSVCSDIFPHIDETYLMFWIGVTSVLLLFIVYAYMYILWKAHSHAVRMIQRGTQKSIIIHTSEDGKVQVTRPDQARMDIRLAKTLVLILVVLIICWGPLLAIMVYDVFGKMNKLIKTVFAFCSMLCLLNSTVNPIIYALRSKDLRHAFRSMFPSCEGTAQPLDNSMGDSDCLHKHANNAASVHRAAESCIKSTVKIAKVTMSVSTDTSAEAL

[7] = target: human cannabinoid CB2 receptor (Homo sapiens, UniProt P34972); settings: read-out: CB2 Ki (± SEM), displacement of [3H]CP55,940, cited from earlier work
Sequence of human cannabinoid CB2 receptor (P34972 whole entry): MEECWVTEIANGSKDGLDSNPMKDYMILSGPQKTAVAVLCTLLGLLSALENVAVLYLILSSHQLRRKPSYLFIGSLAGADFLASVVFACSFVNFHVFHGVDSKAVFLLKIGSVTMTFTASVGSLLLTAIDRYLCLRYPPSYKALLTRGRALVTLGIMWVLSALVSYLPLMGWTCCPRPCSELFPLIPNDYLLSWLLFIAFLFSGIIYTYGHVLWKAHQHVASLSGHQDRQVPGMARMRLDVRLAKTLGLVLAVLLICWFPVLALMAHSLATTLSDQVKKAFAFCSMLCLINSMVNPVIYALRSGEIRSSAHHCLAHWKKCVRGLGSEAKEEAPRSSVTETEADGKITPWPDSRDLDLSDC

[8] = test system: rectal temperature in mice; settings: cited from earlier work; for RT ED50 (95% confidence limits): i.v., ref Wiley et al. (2011)
[9] = 3 mg/kg i.v., ref Wiley et al. (2012)
[10] = 10 mg/kg i.v., ref Wiley et al. (2012)
[11] = 30 mg/kg i.v., ref Wiley et al. (2001)

3-bromopropyl carboxamide analog [Compound O-2154]
%MPE in tail flick (single dose) [1, 9]: 50% (3)
RI, % time immobile (single dose) [2, 9]: 35% (3)
decrease in feeding compared to vehicle ([3]; 56 mg/kg i.p.): 60%
% of maximal cannabinoid agonist-like activity in each of the four tests ([4]; 3 mg/kg): at least 50%
SA, % inhibition of activity of vehicle control group (single dose) [5, 9]: 70% (3)
Ki ([6]; ref Wiley et al. (2012)): 38 nM
Ki ([7]; ref Wiley et al. (2012)): 731 nM

3-cyanopropyl carboxamide analog [Compound O-2155]
%MPE, maximum possible antinociceptive effect in tail flick (maximum effect) ([1]; ref Wiley et al. (2012)): 89% (10)
RI, % time immobile on elevated ring (maximum effect) [2, 10]: 47% (10)
decrease in feeding compared to vehicle ([3]; 30 mg/kg i.p.): 55%
% of maximal cannabinoid agonist-like activity in each of the four tests ([4]; 10 mg/kg): at least 50%
SA, % inhibition of activity of vehicle control group (maximum effect) ([5]; ref Wiley et al. (2012)): 86% (10)
Ki ([6]; ref Wiley et al. (2012)): 222 nM
Ki ([7]; ref Wiley et al. (2012)): 1850 nM

Cc1c(C(=O)NCC2CCC(CNS(C)(=O)=O)CC2)nn(-c2ccc(Cl)cc2Cl)c1-c1ccc(Cl)cc1 (stereo not shown) [13226–70, 5-(4-chlorophenyl)-1-(2,4-dichlorophenyl)–N-{[4-(methanesulfonamido-methyl)cyclohexyl]methyl}-4-methyl-1H-pyrazole-3-carboxamide]
effect on food intake [3]: failed to alter food intake

CCCCC(C)c1ccc(-c2c(C)c(C(=O)NN3CCCCC3)nn2-c2ccc(Cl)cc2Cl)cc1 (stereo not shown) [Compound O-1690, 1-(2,4-dichlorophenyl)-5-[4-(hexan-2-yl)phenyl]-4-methyl-N-(piperidin-1-yl)-1H-pyrazole-3-carboxamide]
%MPE tail flick (maximum effect) [1, 11]: inactive (30)
RI (maximum effect) [2, 11]: inactive (30)
effect on food intake [3]: did not alter food intake
activity in test battery when tested alone ([4]; ref Wiley et al., 2001): inactive
SA (maximum effect) [5, 11]: inactive (30)
RT (maximum effect) [8, 11]: inactive (30)
Ki ([6]; ref Wiley et al. (2001)): 2.6 nM

CCS(=O)(=O)NCCCC#CCc1cc(O)c2c(c1)OC(C)(C)[C@@H]1CC=C(C)C[C@@H]21 [Compound O-1991, N-{6-[(6aR,10aR)-1-hydroxy-6,6,9-trimethyl-6a,7,10,10a-tetrahydro-6H-benzo[c]chromen-3-yl]hex-4-yn-1-yl}ethane-sulfonamide]
%MPE tail flick ED50 (95% confidence limits) [1]: 0.9 (0.6–1.4) mg/kg
decrease in feeding compared to vehicle ([3]; 56 mg/kg i.p.): 79%
dose that significantly decreased feeding [3]: 56 mg/kg
profile in test battery [4]: exhibit agonist-like in vivo effects
SA ED50 (95% confidence limits) [5]: 2 (1–3) mg/kg
RT ED50 (95% confidence limits) [8]: 0.8 (0.4–1.6) mg/kg
Ki ([6]; ref Wiley et al. (2011)): 30 nM
Ki ([7]; ref Wiley et al. (2011)): 1.4 nM

CCS(=O)(=O)NCCCCC(C)(C)c1cc(O)c2c(c1)OC(C)(C)[C@@H]1CC=C(C)C[C@@H]21 [Compound O-2113, N-{5-[(6aR,10aR)-1-hydroxy-6,6,9-tri-methyl-6a,7,10,10a-tetrahydro-6H-benzo[c]chromen-3-yl]-5-methylhexyl}ethanesulfonamide]
%MPE tail flick ED50 (95% confidence limits) [1]: 0.3 (0.1–1) mg/kg
decrease in feeding compared to vehicle ([3]; 30 mg/kg i.p.): 97%
dose that significantly decreased feeding [3]: 30 mg/kg
profile in test battery [4]: exhibit agonist-like in vivo effects
SA ED50 (95% confidence limits) [5]: 0.4 (0.1–1.8) mg/kg
RT ED50 (95% confidence limits) [8]: 1.4 (0.3–4.6) mg/kg
Ki ([6]; ref Wiley et al. (2011)): 1.7 nM
Ki ([7]; ref Wiley et al. (2011)): 0.08 nM

Cc1c(C(=O)NN2CCCCC2)nn(-c2ccc(Cl)cc2Cl)c1-c1ccc(Cl)cc1 [Rimonabant, reference compound]
%MPE, maximum possible antinociceptive effect in tail flick (maximum effect) ([1]; ref Wiley et al. (2012)): inactive (10)
decrease in feeding compared to vehicle ([3]; 1 mg/kg i.p.): 47%
decrease in feeding compared to vehicle ([3]; 10 mg/kg i.p.): 41%
SA, % inhibition of activity of vehicle control group (maximum effect) ([5]; ref Wiley et al. (2012)): stim (10)
RT, change in rectal temperature compared to pre-drug (maximum effect) [8, 10]: inactive (10)
